Experimental data: patent US11179348B2, “Combination comprising pterostilbene for the treatment of cancer” (FUNDACIÓN UNIVERSIDAD CATÓLICA DE VALENCIA SAN VICENTE …, priority 2015, dated 2021)

System: AsPC-1 cells isolated from tumor-bearing mice
Test: Chemosensitization of cultured AsPC-1 cells isolated from xenografts
Type: cell-based, human
Conditions: 72 h-cultured, PL 1 μM, Chemo 0.125 μM PAC.PBP and 25 μM GTB, Pter = in vivo pretreatment
Procedure: FIGS. 18-25. Effect of piperlongumine and I-BET762, as GSH depleting and chemosensitizing agents, in in vitro growing human melanoma, pancreatic, breast, lung, liver, prostate, ovarian, and colorectal cancer cells. Cancer cells, isolated from Pter-treated tumor-bearing mice, were cultured as indicated under Methods. Chemotherapy (0.25 μM PAC.PBP in A2058 melanoma and MDA-MB-231 breast carcinoma cells; 0.125 μM PAC.PBP and 25 μM GTB in AsPC-1 pancreatic cancer cells; 1 μM VRB and 15 μM cisPt in A459 lung carcinoma cells; 0.15 μM DXR in HepG2 hepatocellular carcinoma cells; 15 nM DCT in PC-3 prostate carcinoma cells; 0.15 μM PAC.PBP and 25 μM CarboPt in SK-OV-3 ovarian carcinoma cells; 3 μM 5-FU, 1 μM FA and 0.6 μM IRI in HT-29 colorectal carcinoma cells) was added to the cultured flasks 24 h after seeding. […]
Human A2058, MeWo and MelJuso melanoma cells, and mouse AtT-20 pituitary corticotroph tumor cells were from the American Type Culture Collection (ATCC). […] Cell numbers were determined using a Coulter Counter (Coulter Electronic Inc., Miami, Fla.). […] Cellular viability was assessed as previously reported (Mena, S. et al. Clin Cancer Res 13, 2658-2666 (2007)), by measuring trypan blue exclusion and leakage of lactate dehydrogenase activity. […]

Structure (SMILES): COc1cc(/C=C/c2ccc(O)cc2)cc(OC)c1 [Pter, trans-3,5-dimethoxy-4′-hydroxystilbene]
- Viable cells: 1249 ± 206 ×10^6
